Laboratory results from US20250228835A1, “PYRIDINYLOXYPYRIDINES AND RELATED COMPOUNDS AND THEIR USE IN TREATING MEDICAL CONDITIONS” (Rectify Pharmaceuticals, Inc., priority 2024, published 2025).

target: T1, ABCD2 WT (Homo sapiens, UniProt Q9UBJ2); test: D2 correction dose-response assay: ABCD2 WT HiBit protein expression; type: cell-based; details: HEK-293/ABCD2 WT cells, 24 hours treatment, HiBit luminescence; class combines EC50 and Mean MaxAct (fold); read-out: ABCD2 WT EC50, Emax
T1 construct: expressed in transfected cells
T1 sequence (Q9UBJ2 1-740): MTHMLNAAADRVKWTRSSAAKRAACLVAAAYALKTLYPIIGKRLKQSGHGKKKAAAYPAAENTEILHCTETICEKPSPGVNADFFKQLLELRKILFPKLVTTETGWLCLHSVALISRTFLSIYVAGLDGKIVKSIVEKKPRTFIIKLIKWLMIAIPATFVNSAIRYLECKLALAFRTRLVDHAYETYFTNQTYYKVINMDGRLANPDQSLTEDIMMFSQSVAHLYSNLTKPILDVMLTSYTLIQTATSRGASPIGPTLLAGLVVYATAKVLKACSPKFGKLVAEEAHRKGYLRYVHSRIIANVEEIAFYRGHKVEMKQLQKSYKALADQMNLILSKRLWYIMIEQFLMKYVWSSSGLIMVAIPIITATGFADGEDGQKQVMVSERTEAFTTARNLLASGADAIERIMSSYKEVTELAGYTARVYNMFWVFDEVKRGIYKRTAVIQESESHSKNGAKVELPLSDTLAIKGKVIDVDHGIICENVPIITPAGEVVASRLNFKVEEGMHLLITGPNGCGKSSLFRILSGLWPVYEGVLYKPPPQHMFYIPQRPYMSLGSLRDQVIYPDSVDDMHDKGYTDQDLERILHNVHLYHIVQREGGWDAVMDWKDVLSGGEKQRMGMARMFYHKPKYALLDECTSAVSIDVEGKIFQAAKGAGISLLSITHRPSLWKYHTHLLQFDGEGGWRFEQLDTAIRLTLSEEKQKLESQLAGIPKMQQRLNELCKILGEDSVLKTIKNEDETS
Method in brief: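 HEK-293 cells stably expressing HiBit-tagged human ABCD2 WT were treated with 11 doses (3-fold dilutions, top final 30 μM, 0.3% DMSO) for 24 h at 37 °C. Expression was measured by HiBit lytic luminescence after 1 h at 25 °C, giving EC50 and Emax.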

| SMILES | EC50 [µM] |
| --- | --- |
| Cc1cc(C)c(Oc2nc(N3CC4CC3CN4C(=O)C3CC3)ccc2NS(C)(=O)=O)c(C)c1 (single isomer, unassigned) [Compound I-18] | > 25 |
| Cc1cc(C)c(Oc2nc(N3CC4CC3CN4C(=O)C3CC3)ccc2NS(C)(=O)=O)c(C)c1 (single isomer, unassigned) [Compound I-19] | > 25 |
| Cc1cc(C)c(Oc2nc(N3CCC(C#N)C3)ccc2NS(C)(=O)=O)c(C)c1 (single isomer, unassigned) [Compound I-261] | 1 to 10 |
| Cc1cc(C)c(Oc2nc(N3CCC(C#N)C3)ccc2NS(C)(=O)=O)c(C)c1 (single isomer, unassigned) [Compound I-262] | 1 to 10 |
| Cc1cc(C)c(Oc2nc(N3CCN(C(=O)C4CC4)CC3)ccc2NS(C)(=O)=O)c(C2CC2)n1 [Compound I-20] | 10 to 25 |
| Cc1cc(C)c(Oc2nc(N3CCn4c(C)nnc4C3)ccc2NS(C)(=O)=O)c(C)c1 [Compound I-21] | > 25 |
| Cc1cc(C)c(Oc2nc(N3CC4CC(C3)N4C(=O)C3CC3)ccc2NS(C)(=O)=O)c(C)c1 [Compound I-22] | 1 to 10 |
| Cc1cc(C)c(Oc2nc(N3CCN(C(=O)C4COC4)CC3)ccc2NS(C)(=O)=O)c(C)c1 [Compound I-23] | 10 to 25 |
| Cc1cc(C)c(Oc2nc(N3CCN(C(=O)C4CCC4)CC3)ccc2NS(C)(=O)=O)c(C)c1 [Compound I-24] | 1 to 10 |
| Cc1cc(C)c(Oc2nc(N3CCC4(CN(C(=O)C5CC5)C4)C3)ccc2NS(C)(=O)=O)c(C)c1 [Compound I-25] | 1 to 10 |
| Cc1cc(C)c(Oc2nc(N3CCN(S(C)(=O)=O)CC3)ccc2NS(C)(=O)=O)c(C)c1 [Compound I-26] | 1 to 10 |
| CNC(=O)N1CCN(c2ccc(NS(C)(=O)=O)c(Oc3c(C)cc(C)cc3C)n2)CC1 [Compound I-27] | > 25 |
| Cc1cc(C2CC2)nc(C)c1Oc1nc(N2CCN(C(=O)C3CC3)CC2)ccc1NS(C)(=O)=O [Compound I-28] | > 25 |
| Cc1cc(C)c(Oc2nc(-c3cncc(Cl)c3)ccc2NS(=O)(=O)C(C)C)c(C)c1 [Compound I-29] | > 25 |
| Cc1cc(C)c(Oc2nc(N3CCn4c(cnc4C)C3)ccc2NS(C)(=O)=O)c(C)c1 [Compound I-30] | 1 to 10 |
| Cc1cc(C)c(Oc2nc(N3CC4(CCN(C(=O)C5CC5)C4)C3)ccc2NS(C)(=O)=O)c(C)c1 [Compound I-31] | > 25 |
| Cc1cc(C)c(Oc2nc(N3CCN(C(=O)OC(C)C)CC3)ccc2NS(C)(=O)=O)c(C)c1 [Compound I-32] | 1 to 10 |
| Cc1cc(C)c(Oc2nc(N3CCN(C(=O)N(C)C)CC3)ccc2NS(C)(=O)=O)c(C)c1 [Compound I-33] | 10 to 25 |
| Cc1cc(C)c(Oc2nc(N3CCN(C(=O)C(C)(C)C)CC3)ccc2NS(C)(=O)=O)c(C)c1 [Compound I-34] | > 25 |
| Cc1cc(C)c(Oc2nc(N3C4CC3CN(C(=O)C3CC3)C4)ccc2NS(C)(=O)=O)c(C)c1 [Compound I-35] | > 25 |
| Cc1cc(C)c(Oc2nc(-c3cnc(C#N)c(Cl)c3)ccc2NS(C)(=O)=O)c(C)c1 [Compound I-36] | < 1 |
| Cc1cc(C2CC2)nc(C)c1Oc1nc(-c2cncc(Cl)c2)ccc1NS(C)(=O)=O [Compound I-37] | < 1 |

| SMILES | EC50 [µM] |
| --- | --- |
| Cc1cc(C)c(Oc2nc(N3CC4(CN(C(=O)C5CC5)C4)C3)ccc2NS(C)(=O)=O)c(C)c1 [Compound I-38] | > 25 |
| Cc1cc(C)c(Oc2nc(-c3cncc(C#N)c3)ccc2NS(C)(=O)=O)c(C)c1 [Compound I-39] | < 1 |
| Cc1cc(C)c(Oc2nc(-c3cncc(Cl)c3)ccc2NS(C)(=O)=O)c(C2CC2)n1 [Compound I-40] | < 1 |
| Cc1cc(C)c(Oc2nc(-c3cncc(Cl)c3)ccc2NS(=O)(=O)C2COC2)c(C)c1 [Compound I-41] | < 1 |
| Cc1cc(C)c(Oc2nc(-c3cncc(Cl)c3)ccc2NS(=O)(=O)C2CC2)c(C)n1 [Compound I-238] | 1 to 10 |
| Cc1cc(C)c(Oc2nc(-c3ccnc(C#N)c3)ccc2NS(C)(=O)=O)c(C)n1 [Compound I-239] | < 1 |
| Cc1cc(C(F)(F)F)nc(C)c1Oc1nc(-c2cncc(C#N)c2)ccc1NS(C)(=O)=O [Compound I-240] | < 1 |
| Cc1cc(C)c(Oc2nc(-c3cccc(C#N)n3)ccc2NS(C)(=O)=O)c(C)n1 [Compound I-241] | 10 to 25 |
| CCCS(=O)(=O)Nc1ccc(-c2cncc(C#N)c2)nc1Oc1c(C)cc(C)nc1C [Compound I-242] | > 25 |
| Cc1cc(C)c(Oc2nc(-c3cncc(C#N)c3)ccc2NS(=O)(=O)C2CCC2)c(C)n1 [Compound I-243] | 10 to 25 |
| Cc1cc(C)c(Oc2nc(N3CCC(C#N)CC3)ccc2NS(C)(=O)=O)c(C)c1 [Compound I-244] | 10 to 25 |
| Cc1cc(C)c(Oc2nc(-c3cncc(C#N)c3)ccc2S(=N)(=O)C2CC2)c(C)c1 (stereo not shown) [Compound I-245] | < 1 |
| Cc1cc(C)c(Oc2nc(-c3cncc(Cl)c3)ncc2NS(C)(=O)=O)c(C)n1 [Compound I-246] | < 1 |
| CCS(=O)(=O)Nc1ccc(-c2cncc(C#N)c2)nc1Oc1c(C)cc(C)nc1C [Compound I-247] | > 25 |
| Cc1cc(C)c(Oc2nc(-c3cncc(C#N)c3)ccc2S(=N)(=O)C2CC2)c(C)n1 (stereo not shown) [Compound I-248] | > 25 |
| Cc1cc(C)c(Oc2nc(-c3cncc(C#N)c3)ccc2S(C)(=N)=O)c(C)n1 (stereo not shown) [Compound I-249] | 1 to 10 |
| Cc1cnc(Oc2nc(-c3cncc(C#N)c3)ccc2NS(C)(=O)=O)c(C)c1 [Compound I-250] | > 25 |
| Cc1cc(C2CC2)nc(C)c1Oc1nc(-c2cncc(C#N)c2)ccc1S(C)(=N)=O (stereo not shown) [Compound I-251] | > 25 |
| Cc1cc(C2CC2)nc(C)c1Oc1nc(-c2cncc(C#N)c2)ccc1NS(=O)(=O)C1CCC1 [Compound I-252] | 1 to 10 |
| Cc1cc(C)c(Oc2nc(-c3cncc(C#N)c3)ccc2NS(=O)(=O)C2CCC2)c(C)c1 [Compound I-253] | 1 to 10 |
| Cc1cc(C2CC2)nc(C)c1Oc1nc(-n2cnc(C#N)c2)ccc1NS(C)(=O)=O [Compound I-254] | < 1 |
| Cc1cc(C2CC2)nc(C)c1Oc1nc(-n2ccc(C#N)n2)ccc1NS(C)(=O)=O [Compound I-255] | 1 to 10 |

| SMILES | EC50 [µM] |
| --- | --- |
| Cc1cc(C2CC2)nc(C)c1Oc1nc(-n2cc(C#N)cn2)ccc1NS(C)(=O)=O [Compound I-256] | 1 to 10 |
| Cc1cc(C)c(Oc2nc(-n3ccc(C#N)n3)ccc2NS(C)(=O)=O)c(C)c1 [Compound I-257] | 1 to 10 |
| Cc1cc(C)c(Oc2nc(-c3cncc(C#N)c3)ccc2S(N)(=O)=O)c(C)n1 [Compound I-258] | 10 to 25 |
| Cc1cc(C)c(Oc2nc(-c3cncc(C#N)c3)cnc2NS(C)(=O)=O)c(C)n1 [Compound I-259] | 1 to 10 |
| Cc1cc(C)c(Oc2nc(-c3cncc(Cl)c3)cnc2NS(C)(=O)=O)c(C)n1 [Compound I-260] | 1 to 10 |
| Cc1cc(C2CC2)nc(C)c1Oc1nc(-c2cncc(S(C)(=O)=O)c2)ccc1NS(C)(=O)=O [Compound I-263] | 1 to 10 |
| Cc1cc(C2CC2)nc(C)c1Oc1nc(-c2cncc(C#N)c2)ccc1NS(=O)(=O)C1CC1 [Compound I-264] | > 25 |
| CNS(=O)(=O)c1ccc(-c2cncc(C#N)c2)nc1Oc1c(C)cc(C)nc1C [Compound I-265] | 1 to 10 |
| Cc1cc(C)c(Oc2nc(-c3cncc(C#N)c3)ccc2NS(=O)(=O)C2CC2)c(C)n1 [Compound I-266] | > 25 |
| Cc1cc(C)c(Oc2nc(-c3cncc(C#N)c3)ccc2NS(=O)(=O)C2COC2)c(C)c1 [Compound I-267] | < 1 |
| Cc1cc(C)c(Oc2nc(-c3cncc(C#N)c3)ccc2NS(C)(=O)=O)c(C2CC2)n1 [Compound I-268] | > 25 |
| Cc1cc(C)c(Oc2nc(-c3ccc(C#N)nc3C)ccc2NS(C)(=O)=O)c(C)n1 [Compound I-269] | 1 to 10 |
| Cc1cc(C)c(Oc2nc(-c3cc(C#N)cnc3C)ccc2NS(C)(=O)=O)c(C)n1 [Compound I-270] | 1 to 10 |
| Cc1cc(C2CC2)cc(C)c1Oc1nc(-c2cncc(C#N)c2)ccc1NS(C)(=O)=O [Compound I-271] | > 25 |
| Cc1cc(C)c(Oc2nc(-n3cnc(C#N)c3)ccc2N(C)S(C)(=O)=O)c(C)c1 [Compound I-272] | > 25 |
| Cc1cc(C)c(Oc2nc(-n3cnc(C#N)c3)ccc2NS(C)(=O)=O)c(C)c1 [Compound I-273] | < 1 |
| Cc1cc(C)c(Oc2nc(-n3cc(C#N)cn3)ccc2NS(C)(=O)=O)c(C)c1 [Compound I-274] | 1 to 10 |
| Cc1cc(C)c(Oc2nc(-c3cncc(C#N)c3)cnc2NS(C)(=O)=O)c(C)c1 [Compound I-275] | < 1 |
| Cc1cc(C)c(Oc2nc(-c3cncc(C#N)c3)ccc2NS(=O)(=O)C(C)C)c(C)n1 [Compound I-276] | > 25 |
| Cc1cc(C)c(Oc2nc(-c3cncc(Cl)c3)cnc2NS(C)(=O)=O)c(C)c1 [Compound I-277] | < 1 |
